Laboratory results: ChEMBL document CHEMBL4613266, “Discovery and Structure Relationships of Salicylanilide Derivatives as Potent, Non-acidic P2X1 Receptor Antagonists” (J Med Chem, 2020)
pIC50: −log10 of the molar value.

Experiments:
P2X purinoceptor 1 [1] = biological target: P2X purinoceptor 1 (Homo sapiens, UniProt P51575); assay: Antagonist activity at non-desensitizing human P2X1 receptor ( P2X2/P2X1 chimera) expressed in human 1321N1 cells assessed as inhibition of ATP-induced calcium influx pre-incubated for 30 mins before ATP stimulation by FLIPR assay relative to control; type: cell-based
[2] = biological target: T1, P2X purinoceptor 1 (Homo sapiens) (UniProt P51575); assay: Antagonist activity at non-desensitizing human P2X1 receptor ( P2X2/P2X1 chimera) expressed in human 1321N1 cells assessed as inhibition of ATP-induced calcium influx at 100 uM pre-incubated for 30 mins before ATP stimulation by FLIPR assay relative to control; type: cell-based
T1 sequence (whole entry): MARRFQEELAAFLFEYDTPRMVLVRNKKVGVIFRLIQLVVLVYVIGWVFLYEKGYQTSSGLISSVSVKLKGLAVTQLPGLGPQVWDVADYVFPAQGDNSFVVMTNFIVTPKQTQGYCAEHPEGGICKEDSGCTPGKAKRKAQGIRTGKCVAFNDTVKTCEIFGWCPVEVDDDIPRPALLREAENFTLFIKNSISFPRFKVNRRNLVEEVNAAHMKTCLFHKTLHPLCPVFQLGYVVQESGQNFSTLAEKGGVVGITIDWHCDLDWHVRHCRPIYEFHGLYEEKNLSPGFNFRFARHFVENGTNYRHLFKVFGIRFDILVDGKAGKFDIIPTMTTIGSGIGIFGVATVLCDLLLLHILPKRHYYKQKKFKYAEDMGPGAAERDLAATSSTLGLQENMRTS

[3] = biological target: T1, P2X purinoceptor 1 (Homo sapiens); assay: Antagonist activity at non-desensitizing human P2X1 receptor ( P2X2/P2X1 chimera) expressed in human 1321N1 cells assessed as inhibition of ATP-induced calcium influx at 10 uM pre-incubated for 30 mins before ATP stimulation by FLIPR assay relative to control; type: cell-based
P2X purinoceptor 1 [4] = biological target: T2, P2X purinoceptor 1 (Rattus norvegicus, UniProt P47824); assay: Antagonist activity at rat P2X1 receptor
T2 sequence (P47824 whole entry): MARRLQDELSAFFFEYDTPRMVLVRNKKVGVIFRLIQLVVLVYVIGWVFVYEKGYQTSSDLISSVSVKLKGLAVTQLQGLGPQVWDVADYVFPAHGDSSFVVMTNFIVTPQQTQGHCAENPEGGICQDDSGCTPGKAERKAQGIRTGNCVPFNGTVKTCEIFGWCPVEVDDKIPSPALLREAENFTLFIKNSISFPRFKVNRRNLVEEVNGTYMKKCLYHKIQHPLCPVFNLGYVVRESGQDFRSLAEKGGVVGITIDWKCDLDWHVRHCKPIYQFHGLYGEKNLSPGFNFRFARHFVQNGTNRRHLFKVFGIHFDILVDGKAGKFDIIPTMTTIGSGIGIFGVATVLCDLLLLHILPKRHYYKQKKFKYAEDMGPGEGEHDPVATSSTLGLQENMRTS

[5] = biological target: T3, P2X purinoceptor 2 (Homo sapiens) (UniProt Q9UBL9); assay: Antagonist activity at human P2X2 receptor expressed in human 1321N1 cells assessed as inhibition of ATP-induced cytosolic calcium influx at 10 uM preincubated for 30 mins followed by ATP addition by Fluo-4 AM dye-based fluorescence assay relative to control; type: cell-based
T3 sequence (whole entry): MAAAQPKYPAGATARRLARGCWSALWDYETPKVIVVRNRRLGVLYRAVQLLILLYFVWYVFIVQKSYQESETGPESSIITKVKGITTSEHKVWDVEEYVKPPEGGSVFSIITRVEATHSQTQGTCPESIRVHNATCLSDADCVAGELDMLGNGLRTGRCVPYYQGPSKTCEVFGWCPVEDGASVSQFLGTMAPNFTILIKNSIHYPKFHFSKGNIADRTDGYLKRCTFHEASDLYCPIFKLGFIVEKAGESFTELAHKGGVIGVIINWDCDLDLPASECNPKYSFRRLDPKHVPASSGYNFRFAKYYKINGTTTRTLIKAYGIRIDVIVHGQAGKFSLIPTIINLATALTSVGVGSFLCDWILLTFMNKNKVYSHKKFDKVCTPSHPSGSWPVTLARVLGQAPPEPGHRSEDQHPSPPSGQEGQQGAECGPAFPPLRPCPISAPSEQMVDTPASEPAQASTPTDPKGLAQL

[6] = biological target: T1, P2X purinoceptor 1 (Homo sapiens); assay: Antagonist activity P2X1 receptor in Apyrase pre-treated human platelets assessed as inhibition of collagen-induced platelet aggregation pre-incubated for 30 mins before collagen stimulation by aggregometry relative to control; type: cell-based
[7] = biological target: T4, P2X purinoceptor 3 (Homo sapiens) (UniProt P56373); assay: Antagonist activity at human P2X3 receptor expressed in human 1321N1 cells assessed as inhibition of ATP-induced cytosolic calcium influx at 10 uM preincubated for 30 mins followed by ATP addition by Fluo-4 AM dye-based fluorescence assay relative to control; type: cell-based
T4 sequence (whole entry): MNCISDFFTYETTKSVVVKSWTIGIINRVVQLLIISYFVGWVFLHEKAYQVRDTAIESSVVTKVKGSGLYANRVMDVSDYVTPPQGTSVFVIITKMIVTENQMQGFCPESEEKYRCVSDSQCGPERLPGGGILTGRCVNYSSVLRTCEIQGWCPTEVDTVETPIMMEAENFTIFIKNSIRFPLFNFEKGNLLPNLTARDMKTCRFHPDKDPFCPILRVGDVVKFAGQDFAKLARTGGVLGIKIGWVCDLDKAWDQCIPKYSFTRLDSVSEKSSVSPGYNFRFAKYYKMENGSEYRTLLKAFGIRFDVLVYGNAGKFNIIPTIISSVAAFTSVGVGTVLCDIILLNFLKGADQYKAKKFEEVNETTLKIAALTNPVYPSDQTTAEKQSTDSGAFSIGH

[8] = biological target: T1, P2X purinoceptor 1 (Homo sapiens); assay: Antagonist activity P2X1 receptor in Apyrase pre-treated human platelets assessed as inhibition of TRAP6-induced platelet aggregation pre-incubated for 30 mins before TRAP6 stimulation by aggregometry relative to control; type: cell-based
[9] = biological target: T1, P2X purinoceptor 1 (Homo sapiens); assay: Antagonist activity P2X1 receptor in human platelets assessed as inhibition of ADP-induced platelet aggregation pre-incubated for 30 mins before ADP stimulation by aggregometry relative to control; type: cell-based
[10] = biological target: T1, P2X purinoceptor 1 (Homo sapiens); assay: Antagonist activity at non-desensitizing human P2X1 receptor ( P2X2/P2X1 chimera) expressed in human 1321N1 cells assessed as inhibition of ATP-induced calcium influx at 1 uM pre-incubated for 30 mins before ATP stimulation by FLIPR assay relative to control; type: cell-based
P2X purinoceptor 3 = biological target: T5, P2X purinoceptor 3 (Homo sapiens, UniProt P56373); assay: Antagonist activity at human P2X3 receptor expressed in human 1321N1 cells assessed as inhibition of ATP-induced cytosolic calcium influx preincubated for 30 mins followed by ATP addition by Fluo-4 AM dye-based fluorescence assay; type: cell-based
T5 sequence (P56373 whole entry): T4 sequence (whole entry)

P2X purinoceptor 2 = biological target: T6, P2X purinoceptor 2 (Homo sapiens, UniProt Q9UBL9); assay: Antagonist activity at human P2X2 receptor expressed in human 1321N1 cells assessed as inhibition of ATP-induced cytosolic calcium influx preincubated for 30 mins followed by ATP addition by Fluo-4 AM dye-based fluorescence assay; type: cell-based
T6 sequence (Q9UBL9 whole entry): T3 sequence (whole entry)

P2X purinoceptor 4 = biological target: T7, P2X purinoceptor 4 (Homo sapiens, UniProt Q99571); assay: Antagonist activity at human P2X4 receptor expressed in human 1321N1 cells assessed as inhibition of ATP-induced cytosolic calcium influx preincubated for 30 mins followed by ATP addition by Fluo-4 AM dye-based fluorescence assay; type: cell-based
T7 sequence (Q99571 whole entry): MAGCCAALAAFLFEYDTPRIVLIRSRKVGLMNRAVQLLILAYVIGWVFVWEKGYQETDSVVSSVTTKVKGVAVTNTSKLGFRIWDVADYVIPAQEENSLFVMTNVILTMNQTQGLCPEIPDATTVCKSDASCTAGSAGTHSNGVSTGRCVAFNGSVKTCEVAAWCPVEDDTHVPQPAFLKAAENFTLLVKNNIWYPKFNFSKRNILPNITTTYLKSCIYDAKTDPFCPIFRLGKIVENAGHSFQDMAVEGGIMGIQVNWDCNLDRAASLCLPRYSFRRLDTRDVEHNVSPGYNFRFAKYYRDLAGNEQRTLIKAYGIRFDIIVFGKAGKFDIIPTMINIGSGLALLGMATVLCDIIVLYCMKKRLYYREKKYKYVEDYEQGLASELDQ

P2X purinoceptor 7 = biological target: T8, P2X purinoceptor 7 (Homo sapiens, UniProt Q99572); assay: Antagonist activity at human P2X7 receptor expressed in human 1321N1 cells assessed as inhibition of ATP-induced cytosolic calcium influx preincubated for 30 mins followed by ATP addition by Fluo-4 AM dye-based fluorescence assay; type: cell-based
T8 sequence (Q99572 whole entry): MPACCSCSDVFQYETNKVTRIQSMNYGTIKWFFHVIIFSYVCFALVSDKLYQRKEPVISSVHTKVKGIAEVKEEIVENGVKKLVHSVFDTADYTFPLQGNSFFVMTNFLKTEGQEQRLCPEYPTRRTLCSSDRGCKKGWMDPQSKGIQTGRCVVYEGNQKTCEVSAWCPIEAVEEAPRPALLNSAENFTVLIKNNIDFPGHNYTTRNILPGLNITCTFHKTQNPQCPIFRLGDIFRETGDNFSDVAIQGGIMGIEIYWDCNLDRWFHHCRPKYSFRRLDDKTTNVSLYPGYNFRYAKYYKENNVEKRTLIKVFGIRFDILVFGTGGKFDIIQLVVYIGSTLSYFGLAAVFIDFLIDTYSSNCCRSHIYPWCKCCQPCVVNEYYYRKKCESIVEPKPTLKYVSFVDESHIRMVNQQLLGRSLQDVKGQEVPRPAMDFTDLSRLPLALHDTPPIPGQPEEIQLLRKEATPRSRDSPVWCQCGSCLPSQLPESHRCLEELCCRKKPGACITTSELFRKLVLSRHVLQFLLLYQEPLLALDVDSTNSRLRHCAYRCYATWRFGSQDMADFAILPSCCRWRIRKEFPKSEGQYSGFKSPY

Row | Structure (SMILES) | pIC50 (P2X purinoceptor 1 [4]) | inhibition [5] [%] | inhibition [7] [%] | pIC50 (P2X purinoceptor 1 [1]) | inhibition [2] [%] | inhibition [3] [%] | other results
1 | O=C(Nc1cccc(Br)c1)c1ccccc1O |  |  |  | 5.57 | 98 |  | 
2 | O=C(Nc1ccc(Cl)c([N+](=O)[O-])c1)c1cc(Cl)ccc1O |  |  |  | 4.87 | 80 |  | 
3 | N#Cc1cccc(NC(=O)c2cc(Cl)ccc2O)c1 |  |  |  | 6.28 |  |  | inhibition [10]: 60%
4 | O=C(Nc1cccc(OC(F)(F)F)c1)c1cc(Cl)ccc1O |  |  |  | 5.12 | 100 |  | 

More lines, main results first:

Row | pIC50 (P2X purinoceptor 1 [4]) | inhibition [5] [%] | inhibition [7] [%] | Structure (SMILES) | pIC50 (P2X purinoceptor 1 [1]) | inhibition [2] [%] | inhibition [3] [%] | other results
5 | 5.52 |  |  | O=C(N[C@H](Cc1cscn1)C(=O)N[C@@H](CC1CCCCC1)[C@@H](O)[C@@H](O)C1CC1)c1nc2ccccc2[nH]1 | 6.30 |  | 100 | 
6 | 6.00 |  |  | Cc1nc(/N=N/c2ccc(S(=O)(=O)O)cc2S(=O)(=O)O)c(COP(=O)(O)O)c(C=O)c1O |  |  |  | 
7 |  | 3 | -6 | O=C(Nc1ccc(C(F)(F)F)cc1)c1cc(Cl)ccc1O |  |  | 53 | inhibition [6]: 7%; inhibition [8]: 6%; inhibition [9]: 23%
8 | 9.55 |  |  | O=C(Nc1cc(C(=O)Nc2ccc(S(=O)(=O)O)cc2S(=O)(=O)O)cc(C(=O)Nc2ccc(S(=O)(=O)O)cc2S(=O)(=O)O)c1)Nc1cc(C(=O)Nc2ccc(S(=O)(=O)O)cc2S(=O)(=O)O)cc(C(=O)Nc2ccc(S(=O)(=O)O)cc2S(=O)(=O)O)c1 |  |  | 100 | 
9 |  | -5 | 5 | O=C(Nc1cc(Cl)cc(Cl)c1)c1cc(Cl)ccc1O | 7.53 |  | 56 | pIC50 (P2X purinoceptor 3): < 5.00; inhibition [8]: 13%; pIC50 (P2X purinoceptor 2): < 5.00; pIC50 (P2X purinoceptor 4): 6.15; inhibition [9]: 26%; pIC50 (P2X purinoceptor 7): 7.15
10 |  | -5 | 2 | O=C(Nc1cc(C(F)(F)F)cc(C(F)(F)F)c1)c1ccc(Cl)cc1O | 7.64 |  | 59 | pIC50 (P2X purinoceptor 3): < 5.00; pIC50 (P2X purinoceptor 2): < 5.00; pIC50 (P2X purinoceptor 4): 6.68; pIC50 (P2X purinoceptor 7): 6.71
